Assay results published in patent US20260166039A1 (SCHRÖDINGER, INC., priority 2022, published 2026).
pIC50: −log10 of the molar value. Read-outs that look alike come from different tables or passages of the source.

How the values were obtained:
Wee1 kinase domain = target: T1, Wee1 kinase domain (Homo sapiens, UniProt P30291); experiment: Wee1 Kinase Biochemical Assay (ADP-Glo); details: 15 uM ATP
T1 construct: Wee1 kinase domain was purchased from Carna (catalog #05-177); purchased Carna 05-177
Summary of the method: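 The reaction mix held 1 nM Wee1 kinase domain, 15 uM ATP and 2 ng/mL Poly(Lys,Tyr 4:1) substrate and was left for 4 hours at 25 °C. ADP production was then measured with ADP-Glo, and percent inhibition was derived relative to DMSO and a saturating Wee1 inhibitor.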

[1] = tested on: phosphorylation of Cdc2 Y15 (Wee1 substrate) in A427 cells; experiment: Phosphorylated Cdc2 MSD Electrochemiluminescence Assay; type: cell-based; details: Homo sapiens
Summary of the method: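 Read-out: percent residual phospho-Cdc2 Y15 relative to DMSO and positive-control Wee1 inhibitor, measured by MSD electrochemiluminescence capture/detection antibody assay in cell lysates. A427 cells received duplicate 3-fold compound dilution series 20 h post-seeding, with 6 h total incubation at 37 °C.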

[2] = class symbols, 1 nM Wee1 enzyme, 4 hours at 25° C.
[3] = A-427, class symbols, read-out: A427 pCDC2 MSD IC50

T1 sequence (P30291 299-569 limits assumed): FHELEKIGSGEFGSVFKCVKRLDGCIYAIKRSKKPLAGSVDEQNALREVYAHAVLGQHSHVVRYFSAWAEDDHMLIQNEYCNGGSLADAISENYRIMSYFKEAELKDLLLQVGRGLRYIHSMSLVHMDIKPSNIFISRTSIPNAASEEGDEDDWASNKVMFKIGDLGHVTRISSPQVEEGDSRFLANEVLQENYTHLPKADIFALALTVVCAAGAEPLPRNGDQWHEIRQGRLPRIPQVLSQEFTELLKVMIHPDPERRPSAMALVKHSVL

SMILES: CN[C@]1(C)CCc2ccc(N3c4nc(Nc5ccc(N6CCOCC6)cc5)ncc4[C@@]4(C)COC(C)(C)C[C@@H]34)nc21 (single isomer, unassigned) [Example 569]
- pIC50 (Wee1 kinase domain; [2]): > 8.00
- pIC50 [1, 3]: > 7.00

SMILES: CN1C[C@H]2C[C@@H]1CN2c1ccc(Nc2ncc3c(n2)N(c2cccc(C(C)(C)O)n2)[C@@H]2CC(C)(C)OC[C@]32C)cc1F (single isomer, unassigned) [Example 427]
- pIC50 (Wee1 kinase domain; [2]): > 8.00
- pIC50 [1, 3]: 6.00 to 7.00

SMILES: CC1(C)C[C@H]2N(c3cccc(N=S(C)(C)=O)n3)c3nc(Nc4ccc(O[C@H]5CCNC5)cc4)ncc3[C@@]2(C)CO1 (single isomer, unassigned) [Example 153]
- pIC50 (Wee1 kinase domain; Wee1 kinase domain, ADP-Glo): > 8.00
- pIC50 ([1]; A-427, pCDC2 MSD): > 7.00

SMILES: CC1(C)C[C@@H]2N(c3cccc(N=S(C)(C)=O)n3)c3nc(Nc4ccc([C@]5(C)CCNC5)cc4)ncc3[C@]2(C)CO1 (single isomer, unassigned) [Example 173]
- pIC50 (Wee1 kinase domain; Wee1 kinase domain, ADP-Glo): > 8.00
- pIC50 ([1]; A-427, pCDC2 MSD): > 7.00

SMILES: CC1(C)C[C@H]2N(c3cccc(N=S(C)(C)=O)n3)c3nc(Nc4ccc([C@@H]5CCNC5)cc4)ncc3[C@@]2(C)CO1 (single isomer, unassigned) [Example 131]
- pIC50 (Wee1 kinase domain; Wee1 kinase domain, ADP-Glo): > 8.00
- pIC50 ([1]; A-427, pCDC2 MSD): > 7.00

SMILES: Cc1cc(Nc2ncc3c(n2)N(c2cccc(N=S(C)(C)=O)n2)[C@@H]2CC(C)(C)OC[C@]32C)cnn1 (single isomer, unassigned) [Example 370]
- pIC50 (Wee1 kinase domain; Wee1 kinase domain, ADP-Glo): > 8.00
- pIC50 ([1]; A-427, pCDC2 MSD): 6.00 to 7.00

SMILES: CNCc1cccc(N2c3nc(Nc4ccc(N5CCOCC5)cc4)ncc3[C@@]3(C)COC(C)(C)C[C@@H]23)n1 (single isomer, unassigned) [Example 5]
- pIC50 (Wee1 kinase domain; Wee1 kinase domain, ADP-Glo): > 8.00
- pIC50 ([1]; A-427, pCDC2 MSD): 6.00 to 7.00

SMILES: CN=[S@@](C)(=O)c1cccc(N2c3nc(Nc4ccc(C5CCN(C)CC5)cc4)ncc3[C@@]3(C)COC(C)(C)C[C@@H]23)n1 (single isomer, unassigned) [Example 752]
- pIC50 (Wee1 kinase domain; [2]): > 8.00
- pIC50 [1, 3]: 6.00 to 7.00

SMILES: CNCc1cccc(N2c3nc(Nc4ccc(N5C6CCC5COC6)cc4)ncc3[C@]3(C)COC(C)(C)C[C@H]23)n1 (single isomer, unassigned) [Example 88]
- pIC50 (Wee1 kinase domain; Wee1 kinase domain, ADP-Glo): > 8.00
- pIC50 ([1]; A-427, pCDC2 MSD): 6.00 to 7.00

SMILES: CN[C@@H](Cc1ccc(Nc2ncc3c(n2)N(c2cccc(N4C(=O)OC[C@@H]4C)n2)[C@@H]2CC(C)(C)OC[C@]32C)cc1)C(=O)O (single isomer, unassigned) [Example 321]
- pIC50 (Wee1 kinase domain; Wee1 kinase domain, ADP-Glo): > 8.00
- pIC50 ([1]; A-427, pCDC2 MSD): 6.00 to 7.00

SMILES: CN1CCN(c2ccc(Nc3ncc4c(n3)N(c3ccn(C(F)(F)F)n3)[C@@H]3CC(C)(C)OC[C@]43C)cc2)CC1 (single isomer, unassigned) [Example 719]
- pIC50 (Wee1 kinase domain; [2]): > 8.00
- pIC50 [1, 3]: 5.00 to 6.00

SMILES: CNCc1cccc(N2c3nc(Nc4ccn([C@@H]5CCOC5)c(=O)c4)ncc3[C@@]3(C)COC(C)(C)C[C@@H]23)n1 (single isomer, unassigned) [Example 388]
- pIC50 (Wee1 kinase domain; Wee1 kinase domain, ADP-Glo): > 8.00
- pIC50 ([1]; A-427, pCDC2 MSD): 6.00 to 7.00

SMILES: CN1CC[C@H]2CN(c3ccc(Nc4ncc5c(n4)N(c4cccc(N=S(C)(C)=O)n4)[C@@H]4CC(C)(C)OC[C@]54C)cc3)C[C@H]21 (single isomer, unassigned) [Example 503]
- pIC50 (Wee1 kinase domain; [2]): > 8.00
- pIC50 [1, 3]: > 7.00

SMILES: CN1CC(c2ccc(Nc3ncc4c(n3)N(c3cccc(N5CCOC5=O)n3)[C@@H]3CC(C)(C)OC[C@]43C)cc2)C1 [Example 698, 3-(6-((4bR,8aR)-4b,7,7-trimethyl-2-((4-(1-methylazetidin-3-yl)phenyl)amino)-4b,7,8,8a-tetrahydropyrano[3′,4′:4,5]pyrrolo[2,3-d]pyrimidin-9(5H)-yl)pyridin-2-yl)oxazolidin-2-one]
- pIC50 (Wee1 kinase domain; [2]): > 8.00
- pIC50 [1, 3]: 6.00 to 7.00

SMILES: CC1(C)C[C@H]2N(c3cccc(C4(F)CNC4)n3)c3nc(Nc4ccc(N5CCOCC5)cc4)ncc3[C@@]2(C)CO1 (single isomer, unassigned) [Example 545]
- pIC50 (Wee1 kinase domain; [2]): > 8.00
- pIC50 [1, 3]: 6.00 to 7.00

SMILES: [2H]C([2H])([2H])n1ccc(Nc2ncc3c(n2)N(c2cccc(N=S(C)(C)=O)n2)[C@@H]2CC(C)(C)OC[C@]32C)cc1=O (single isomer, unassigned) [Example 378]
- pIC50 (Wee1 kinase domain; Wee1 kinase domain, ADP-Glo): > 8.00
- pIC50 ([1]; A-427, pCDC2 MSD): 6.00 to 7.00

SMILES: CN1CC(c2ccc(Nc3ncc4c(n3)N(c3cccc(N=S(C)(C)=O)n3)[C@@H]3CC(C)(C)OC[C@]43C)cc2)C1 (single isomer, unassigned) [Example 165]
- pIC50 (Wee1 kinase domain; Wee1 kinase domain, ADP-Glo): > 8.00
- pIC50 ([1]; A-427, pCDC2 MSD): > 7.00

SMILES: C[C@H]1COC(=O)N1c1cccc(N2c3nc(Nc4cn(C5CCN(C)CC5)nn4)ncc3[C@@]3(C)COC(C)(C)C[C@@H]23)n1 (single isomer, unassigned) [Example 253]
- pIC50 (Wee1 kinase domain; Wee1 kinase domain, ADP-Glo): > 8.00
- pIC50 ([1]; A-427, pCDC2 MSD): 6.00 to 7.00

SMILES: C[C@H]1COC(=O)N1c1cccc(N2c3nc(Nc4ccc([C@@H]5CCNC5)nc4)ncc3[C@@]3(C)COC(C)(C)C[C@@H]23)n1 (single isomer, unassigned) [Example 257]
- pIC50 (Wee1 kinase domain; Wee1 kinase domain, ADP-Glo): > 8.00
- pIC50 ([1]; A-427, pCDC2 MSD): 6.00 to 7.00

SMILES: CN1CCC[C@@H](n2cc(Nc3ncc4c(n3)N(c3cccc(N=S(C)(C)=O)n3)[C@@H]3CC(C)(C)OC[C@]43C)cn2)C1 (single isomer, unassigned) [Example 201]
- pIC50 (Wee1 kinase domain; Wee1 kinase domain, ADP-Glo): > 8.00
- pIC50 ([1]; A-427, pCDC2 MSD): 6.00 to 7.00

SMILES: Cc1cc(Nc2ncc3c(n2)N(c2cccc(C(C)(C)O)n2)[C@@H]2CC(C)(C)OC[C@]32C)ccc1C1CCN(C)CC1 (single isomer, unassigned) [Example 8]
- pIC50 (Wee1 kinase domain; Wee1 kinase domain, ADP-Glo): > 8.00
- pIC50 ([1]; A-427, pCDC2 MSD): 6.00 to 7.00

SMILES: CN1CC2CC1CN2c1ccc(Nc2ncc3c(n2)N(c2cccc(N=S(C)(C)=O)c2)C2CC(C)(C)OCC32C)cc1 (single isomer, unassigned) [Example 712]
- pIC50 (Wee1 kinase domain; [2]): > 8.00
- pIC50 [1, 3]: 5.00 to 6.00

SMILES: CN1CC[C@H](c2ccc(Nc3ncc4c(n3)N(c3cccc(N5CCCC5=O)n3)[C@@H]3CC(C)(C)OC[C@]43C)cc2)C1 [Example 634, 1-(6-((4bR,8aR)-4b,7,7-trimethyl-2-((4-((R)-1-methylpyrrolidin-3-yl)phenyl)amino)-4b,7,8,8a-tetrahydropyrano[3′,4′:4,5]pyrrolo[2,3-d]pyrimidin-9(5H)-yl)pyridin-2-yl)pyrrolidin-2-one]
- pIC50 (Wee1 kinase domain; [2]): > 8.00
- pIC50 [1, 3]: 6.00 to 7.00

SMILES: C[C@H]1COC(=O)N1c1cccc(N2c3nc(Nc4ccc(N5CCN(C)CC5)cc4)ncc3[C@]3(C)COC(C)(C)C[C@H]23)n1 (single isomer, unassigned) [Example 235]
- pIC50 (Wee1 kinase domain; Wee1 kinase domain, ADP-Glo): > 8.00
- pIC50 ([1]; A-427, pCDC2 MSD): 6.00 to 7.00

SMILES: CNCc1ccc(Nc2ncc3c(n2)N(c2cccc(N4C(=O)OC[C@@H]4C)n2)[C@@H]2CC(C)(C)OC[C@]32C)cc1 (single isomer, unassigned) [Example 360]
- pIC50 (Wee1 kinase domain; Wee1 kinase domain, ADP-Glo): > 8.00
- pIC50 ([1]; A-427, pCDC2 MSD): 6.00 to 7.00

SMILES: CN1CCC(c2ccc(Nc3ncc4c(n3)N(c3cccc(N=S(C)(C)=O)n3)[C@H]3CC(C)(C)OC[C@@]43C)cc2)CC1 (single isomer, unassigned) [Example 112]
- pIC50 (Wee1 kinase domain; Wee1 kinase domain, ADP-Glo): > 8.00
- pIC50 ([1]; A-427, pCDC2 MSD): > 7.00

SMILES: CC1(C)C[C@H]2N(c3cccc(N=S(C)(C)=O)n3)c3nc(N)ncc3[C@@]2(C)CO1 (single isomer, unassigned) [Example 746]
- pIC50 (Wee1 kinase domain; [2]): > 8.00
- pIC50 [1, 3]: 6.00 to 7.00

SMILES: CNCc1cccc(N2c3nc(Nc4ccccc4)ncc3[C@@]3(C)COC(C)(C)C[C@@H]23)n1 (single isomer, unassigned) [Example 45]
- pIC50 (Wee1 kinase domain; Wee1 kinase domain, ADP-Glo): > 8.00
- pIC50 ([1]; A-427, pCDC2 MSD): 6.00 to 7.00

SMILES: CC1(C)C[C@@H]2N(c3cccc(C(C)(C)O)n3)c3nc(Nc4ccc(O[C@@H]5CCNC5)cc4)ncc3[C@]2(C)CO1 (single isomer, unassigned) [Example 417]
- pIC50 (Wee1 kinase domain; [2]): > 8.00
- pIC50 [1, 3]: > 7.00
